Test results as given in patent publication US11365192B2, “Pyridine compound substituted with azole” (TAISHO PHARMACEUTICAL CO., LTD., priority 2017, dated 2022).

Columns and labels:
[1] = molecular target: human CYP4F2 (Homo sapiens (Human), UniProt P78329); assay: Inhibition test against 20-HETE producing enzyme CYP4F2 (luciferine derivative, luminescence); type: biochemical; settings: E. coli membrane fraction expressing human CYP4F2, 2.5 μM luciferine derivative, room temperature 60 minutes
Experimental: (§1) (1) Inhibition Test for Each Compound of the Present Invention Against 20-HETE Producing Enzymes (CYP4F2 and CYP4A11)
(§2) In the CYP4F2 inhibition test, the reaction solution containing each compound [final concentration of 50 mM, KPO4 (pH 7.4), 2.5 μM luciferine derivative, and 1 mM NADPH] was added to an Escherichia coli membrane fraction (100 μg/mL protein) in which human CYP4F2 had been expressed. In the CYP4A11 inhibition test, the reaction solution containing each compound [final concentration of 100 mM, Tris-HCl (pH 7.5), 60 μM luciferine derivative, 1.3 mM NADP^+, 3.3 mM Glucose 6-Phosphate, 3.3 mM MgCl2, and 0.4 U/mL Glucose 6-Phosphate dehydrogenase] was added to an Escherichia coli membrane fraction (100 μg/mL protein) in which human CYP4A11 had been expressed. Following this, the membrane fraction was left to stand at room temperature for 60 minutes to perform an enzymatic reaction. After the reaction, a luciferine detection reagent was added, and the luminescence value was measured using a plate reader. By using that value, the percent inhibition of 20-HETE producing enzyme (%) was calculated according to the equation described below, and the 50% inhibitory concentration (IC50 value) for each compound was calculated. Percent inhibition of 20-HETE producing enzyme (%)=[1−(A−B)/(C−B)]*100
(§3) A: Luminescence value with addition of compound
(§4) B: Luminescence value without addition of compound and enzyme

[2] = molecular target: human CYP4A11 (Homo sapiens (Human), UniProt Q02928); assay: Inhibition test against 20-HETE producing enzyme CYP4A11 (luciferine derivative, luminescence); type: biochemical; settings: E. coli membrane fraction expressing human CYP4A11, 60 μM luciferine derivative, room temperature 60 minutes
Experimental: as §1, §2, §3, §4

Sequence of human CYP4F2 (P78329 5-520): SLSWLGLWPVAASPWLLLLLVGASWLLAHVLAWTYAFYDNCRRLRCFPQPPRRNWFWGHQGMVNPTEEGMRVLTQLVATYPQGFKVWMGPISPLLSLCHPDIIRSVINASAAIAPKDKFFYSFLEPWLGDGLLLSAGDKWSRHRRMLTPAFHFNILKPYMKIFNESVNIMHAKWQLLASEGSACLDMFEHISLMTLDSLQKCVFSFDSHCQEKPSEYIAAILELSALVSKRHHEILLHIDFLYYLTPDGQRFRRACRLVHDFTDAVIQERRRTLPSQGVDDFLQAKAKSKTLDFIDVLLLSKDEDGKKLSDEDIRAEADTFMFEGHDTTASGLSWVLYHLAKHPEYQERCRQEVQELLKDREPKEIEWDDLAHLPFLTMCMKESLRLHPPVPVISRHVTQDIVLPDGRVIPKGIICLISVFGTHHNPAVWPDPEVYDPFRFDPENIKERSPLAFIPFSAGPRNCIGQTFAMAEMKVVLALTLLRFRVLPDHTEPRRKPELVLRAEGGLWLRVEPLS
Sequence of human CYP4A11 (Q02928 5-519): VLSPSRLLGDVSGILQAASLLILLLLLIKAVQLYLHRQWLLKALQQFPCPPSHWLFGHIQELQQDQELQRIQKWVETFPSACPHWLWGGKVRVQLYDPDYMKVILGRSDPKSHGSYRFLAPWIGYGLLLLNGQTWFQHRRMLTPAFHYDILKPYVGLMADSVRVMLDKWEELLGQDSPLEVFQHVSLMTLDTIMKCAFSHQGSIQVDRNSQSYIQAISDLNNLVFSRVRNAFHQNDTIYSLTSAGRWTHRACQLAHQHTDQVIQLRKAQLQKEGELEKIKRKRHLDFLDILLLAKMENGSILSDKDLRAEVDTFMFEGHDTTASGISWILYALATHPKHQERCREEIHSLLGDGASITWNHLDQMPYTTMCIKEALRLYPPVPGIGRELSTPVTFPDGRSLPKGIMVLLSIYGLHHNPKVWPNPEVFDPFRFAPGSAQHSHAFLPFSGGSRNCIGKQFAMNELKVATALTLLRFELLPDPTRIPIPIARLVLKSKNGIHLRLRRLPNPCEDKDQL

IC50 [1] [µM] | IC50 [2] [µM] | Structure (SMILES)
0.019 | 0.046 | O=C(O)C1(CCCCCCCOc2ccc(-c3ccn[nH]3)nc2)CCCC1 [Example 1-45]
0.37 | 0.066 | O=C(O)C1(CCCCCCOc2ccc(-c3ccn[nH]3)nc2)CCCC1 [Example 1-46, 1-[6-[[6-(1H-Pyrazol-5-yl)-3-pyridinyl]oxy]hexyl]-1-cyclopentanecarboxylic Acid]
14 | 0.068 | O=C(O)CCCCCOc1ccc(-c2ccn[nH]2)nc1 [Example 1-47, 6-[[6-(1H-Pyrazol-5-yl)-3-pyridinyl]oxy]hexanoic Acid]
2 | 0.044 | O=C(O)CCCCCCCOc1ccc(-c2ccn[nH]2)nc1 [Example 1-48]
24 | 0.14 | O=C(O)C1CCC(COc2ccc(-c3ccn[nH]3)nc2)CC1 (stereo not shown) [Example 1-49]
23 | 0.17 | O=C(O)[C@H]1CC[C@@H](COc2ccc(-c3ccn[nH]3)nc2)CC1 [Example 1-50]
0.2 | 0.054 | O=C(O)CCCCCCCCOc1ccc(-c2ccn[nH]2)nc1 [Example 1-51]
0.041 | 0.044 | O=C(O)CCCCCCCCCOc1ccc(-c2ccn[nH]2)nc1 [Example 1-52]
3.4 | 0.057 | O=C(O)C1CCCC(COc2ccc(-c3ccn[nH]3)nc2)C1 (stereo not shown) [Example 1-54]
3.7 | 0.03 | O=C(O)C12CCCC(CCCOc3ccc(-c4ccn[nH]4)nc3)(C1)C2 [Example 1-55]
0.65 | 0.086 | O=C(O)Cn1ccc(-c2cccc(COc3ccc(-c4ccn[nH]4)nc3)c2)cc1=O [Example 1-58]
17 | 0.042 | CC(C)(CCCCOc1ccc(-c2ccn[nH]2)nc1)C(=O)O [Example 1-59]
31 | 0.038 | CC(C)(CCCOc1ccc(-c2ccn[nH]2)nc1)CC(=O)O [Example 1-60]
1.9 | 0.026 | CC(C)(CCCCCCOc1ccc(-c2ccn[nH]2)nc1)C(=O)O [Example 1-61, 2,2-Dimethyl-8-[[6-(1H-pyrazol-5-yl)-3-pyridinyl]oxy]octanoic Acid]
0.096 | 0.023 | CC(C)(CCCCCCCOc1ccc(-c2ccn[nH]2)nc1)C(=O)O [Example 1-62]
0.0089 | 0.036 | CC(C)(CCCCCCCCOc1ccc(-c2ccn[nH]2)nc1)C(=O)O [Example 1-63]
7.5 | 0.028 | CCC(CC)(CCCCOc1ccc(-c2ccn[nH]2)nc1)C(=O)O [Example 1-64, 2,2-Diethyl-6-[[6-(1H-pyrazol-5-yl)-3-pyridinyl]oxy]hexanoic Acid]
24 | 1.2 | COc1ccc(COc2ccc(-c3ccn[nH]3)nc2)cc1C(=O)O [Example 1-65, 2-Methoxy-5-[[6-(1H-pyrazol-5-yl)-3-pyridinyl]oxymethyl]benzoic Acid]
> 50 | 0.33 | CC(C)(Oc1cccc(COc2ccc(-c3ccn[nH]3)nc2)n1)C(=O)O [Example 1-66]
10 | 0.12 | CC(C)(OCCOCCCCOc1ccc(-c2ccn[nH]2)nc1)C(=O)O [Example 1-67]
3 | 0.075 | O=C(O)C1CCc2cc(COc3ccc(-c4ccn[nH]4)nc3)ccc2O1 (stereo not shown) [Example 1-69]
24 | 0.023 | O=C(O)[C@]12CC3C[C@H](C1)[C@H](COc1ccc(-c4ccn[nH]4)nc1)[C@@H](C3)C2 [Example 2-1, trans-4-[[6-(1H-Pyrazol-5-yl)-3-pyridinyl]oxymethyl]-1-adamantanecarboxylic Acid]
> 50 | 0.13 | O=C(O)[C@]12CC3C[C@H](C1)[C@@H](COc1ccc(-c4ccn[nH]4)nc1)[C@@H](C3)C2 [Example 2-2, cis-4-[[6-(1H-Pyrazol-5-yl)-3-pyridinyl]oxymethyl]-1-adamantanecarboxylic Acid]
0.075 | 0.099 | O=C(O)C1(OCCCCCCCOc2ccc(-c3ccn[nH]3)nc2)CCCC1 [Example 2-3]
1.8 | 0.2 | O=C(O)C1(OCCOCCCCOc2ccc(-c3ccn[nH]3)nc2)CCCC1 [Example 2-4]
8.6 | 0.015 | O=C(O)CCc1ccccc1CCOc1ccc(-c2ccn[nH]2)nc1 [Example 2-5, 3-[2-[2-[[6-(1H-Pyrazol-5-yl)-3-pyridinyl]oxy]ethyl]phenyl]propanoic Acid]
4.4 | 0.035 | O=C(O)CCC12CCC(COc3ccc(-c4ccn[nH]4)nc3)(CC1)CC2 [Example 2-7]

IC50 [1] [µM] | IC50 [2] [µM] | Structure (SMILES)
0.44 | 0.12 | O=C(CCCC1(C(=O)O)CCCC1)N1CCC[C@@H](COc2ccc(-c3ccn[nH]3)nc2)C1 [Example 3-2]
2.3 | 0.39 | O=C(CCC1(C(=O)O)CCCC1)N1CCC(CCOc2ccc(-c3ccn[nH]3)nc2)CC1 [Example 3-3]
0.26 | 1.8 | O=C(CCC1(C(=O)O)CCCC1)N1CCCC(CCOc2ccc(-c3ccn[nH]3)nc2)C1 (stereo not shown) [Example 3-4]
3 | 2.2 | CC(=O)N1CCC(CCCCCCOc2ccc(-c3ccn[nH]3)nc2)(C(=O)O)CC1 [Example 3-5]
2.7 | 0.81 | CC(=O)N1CCC(CCCCCCOc2ccc(-c3ccn[nH]3)nc2)(C(=O)O)C1 (stereo not shown) [Example 3-6]
5.7 | 1.6 | O=C(O)C1(CCCCCCOc2ccc(-c3ccn[nH]3)nc2)CCS(=O)(=O)CC1 [Example 3-7]
0.25 | 1.2 | CC(=O)N1CCC(CCCCCCCOc2ccc(-c3ccn[nH]3)nc2)(C(=O)O)CC1 [Example 3-8]
0.43 | 0.24 | O=C(O)C1(C(=O)NCCCCCCOc2ccc(-c3ccn[nH]3)nc2)CCCC1 [Example 3-9]
0.25 | 0.092 | CN(CCCCCCOc1ccc(-c2ccn[nH]2)nc1)C(=O)C1(C(=O)O)CCCC1 [Example 3-10]
0.29 | 0.055 | O=S(=O)(CCO)c1cccc(COc2ccc(-c3ccn[nH]3)nc2)c1 [Example 3-11]
0.83 | 0.022 | O=C(O)CCCc1cccc(CCOc2ccc(-c3ccn[nH]3)nc2)c1 [Example 4-1, 4-[3-[2-[[6-(1H-Pyrazol-5-yl)-3-pyridinyl]oxy]ethyl]phenyl]butanoic Acid]
0.16 | 0.25 | O=C(O)CCCc1ccc(CCOc2ccc(-c3ccn[nH]3)nc2)cc1 [Example 4-2]
1.7 | 0.073 | O=C(O)c1ccc2c(c1)C(CCOc1ccc(-c3ccn[nH]3)nc1)CCC2 (stereo not shown) [Example 5-2]
0.0079 | 0.77 | CC(=O)N1CCC(CCCCCCCCOc2ccc(-c3ccn[nH]3)nc2)(C(=O)O)CC1 [Example 6-1, 1-Acetyl-4-[8-[[6-(1H-pyrazol-5-yl)-3-pyridinyl]oxy]octyl]-4-piperidinecarboxylic Acid]
48 | 0.034 | CC(C)(CCOc1ccc(-c2ccn[nH]2)nc1)CCC(=O)O [Example 7-1, 4,4-Dimethyl-6-[[6-(1H-pyrazol-5-yl)-3-pyridinyl]oxy]hexanoic Acid]
0.79 | 0.02 | O=C(O)[C@H]1CC[C@@H](c2cccc(COc3ccc(-c4ccn[nH]4)nc3)c2)CC1 [Example 8-1, cis-4-[3-[[6-(1H-Pyrazol-5-yl)-3-pyridinyl]oxymethyl]phenyl]-1-cyclohexanecarboxylic Acid]
6.5 | 0.019 | O=C(O)[C@H]1CC[C@H](c2cccc(COc3ccc(-c4ccn[nH]4)nc3)c2)CC1 [Example 8-2, trans-4-[3-[[6-(1H-Pyrazol-5-yl)-3-pyridinyl]oxymethyl]phenyl]-1-cyclohexanecarboxylic Acid]
0.86 | 0.028 | O=C(O)C1CCCC(c2cccc(COc3ccc(-c4ccn[nH]4)nc3)c2)C1 (stereo not shown) [Example 8-3]
4.3 | 0.25 | O=C(O)c1ccccc1-c1cccc(COc2ccc(-c3ccn[nH]3)nc2)c1 [Example 8-4]
2.3 | 0.56 | CC(C)(C(=O)O)c1cccc(S(=O)(=O)CCCCOc2ccc(-c3ccn[nH]3)nc2)c1 [Example 8-5]
0.053 | 2.5 | CC(C)(CCN1CCc2ccc(COc3ccc(-c4ccn[nH]4)nc3)cc2C1=O)C(=O)O [Example 8-6]
0.28 | 0.44 | O=C(O)CCc1ccc(CCCOc2ccc(-c3ccn[nH]3)nc2)cc1 [Example 8-7]
1.1 | 0.26 | O=C(O)Cc1ccc(CCCOc2ccc(-c3ccn[nH]3)nc2)cc1 [Example 8-8]
6.2 | 0.029 | O=C(O)COc1ccc(COc2ccc(-c3ccn[nH]3)nc2)cc1 [Example 8-9]
1.3 | 0.035 | O=C(O)c1ccnc(-c2cccc(COc3ccc(-c4ccn[nH]4)nc3)c2)c1 [Example 8-10]
0.12 | 0.014 | O=C(O)c1cc(-c2cccc(COc3ccc(-c4ccn[nH]4)nc3)c2)ccn1 [Example 8-11]
